Laboratory results taken from publication PMC6332334, “3-H-[1,2]Dithiole as a New Anti-Trypanosoma cruzi Chemotype: Biological and Mechanism of Action Studies” (Molecules, 2015).
Marks after values point to notes of the source that are not given here.

What was measured:
[1] = system: membrane sterol biosynthesis in epimastigotes of Y strain of T. cruzi; assay: Inhibition of membrane sterol biosynthesis (qualitative TLC); type: cell-based, Trypanosoma cruzi; settings: compounds at their IC50, 72 h, 28 °C, compared to control
Protocol: To do so, we analyzed the accumulation or depletion of some intermediates or final products of this biochemical pathway. Qualitative analyses were performed by thin layer chromatography (TLC).
The parasites, epimastigotes of Y strain of T. cruzi (DTU Tc II), were grown in 6 mL of BHT milieu in culture bottles. […] A negative control was performed with parasites in the absence of compounds. […] The extraction of membrane sterols was performed on completion of the incubation. For this purpose, the content of the culture bottle was centrifuged at 3000 rpm for 10 min, the supernatant was discarded and the pellet was suspended in sodium phosphate buffer solution (6 mL, 0.05 M, pH 7.4). Then it was centrifuged again at 3000 rpm for 10 min and the supernatant was discarded. The resulting pellet was resuspended in a chloroform/methanol (2:1) mixture (5 mL) and the suspension was kept at 4 °C for 12 h. Then, a saturated NaCl solution (5 mL) was added and the mixture extracted once with chloroform (3 mL) and once with hexane (3 mL) with care to avoid taking any aqueous phase. The extracted volume was applied to a silica gel TLC plate. Chromatography was performed eluting with hexane, two runs to identify squalene, and once with hexane/EtOAc (8:2) for ergosterol. […] Also, controls and commercial samples of ergosterol, lanosterol, cholesterol and squalene were run on the TLC plate. […]

[2] = system: T. cruzi cells (Y strain, DTU Tc II); assay: 1H-NMR study of the excreted metabolites; type: cell-based, Trypanosoma cruzi
Protocol: To gain insight into the changes promoted by the active 3-propylidene[1,2]dithioles 2 and 14 in some biochemical pathways, the metabolites excreted by the parasite using ^1H-NMR spectroscopy were analyzed. Changes in the excreted metabolites by T. cruzi Y strain (DTU Tc II, [24]), when the parasite cells were exposed to a bioactive compound, could be indicative of the modification of the biochemical pathway(s) by the agents. Spectra of the cell-free milieu of treated parasites were compared with those of the untreated T. cruzi-free milieu as the control. We focused mainly on the changes of excreted salts of the carboxylic acids, lactate (Lac), acetate (Ace), pyruvate (Pyr), and succinate (Succ) and the amino acids, alanine (Ala) and glycine (Gly), among the most relevant modified metabolites.
For the ^1H-NMR spectroscopic studies, T. cruzi cells (Y strain, DTU Tc II) treated for 2 days, with each studied compound at concentrations corresponding to 2 × IC50 values (5 mL) were centrifuged at 1500× g for 10 min at 4 °C. The pellet was discarded, and the parasite-free supernatant was stored at −20 °C until use. Before measuring, DMF (0.1 mL, 10 mM) as the internal standard and D2O (0.1 mL) were added to the supernatant (0.3 mL). ^1H-NMR experiments were recorded at 20 °C on a Bruker Advance DPX-400 spectrometer (Bruker), operating at 400.132 MHz, with a 5 mm broadband inverse geometry probe. The acquisition parameters included: 90° pulse (zgpr, advance-version v 1.7.10.2, 1D sequence with f1 presaturation), 128 scans, and spectral width of 14.983 ppm. The acquisition time was 1.3664 s. Signal intensities were calculated by performing appropriate baseline corrections and then integrating the area under each of the resonances using MestRe-C NMR software. Spectra were analyzed using the Topspin 1.3 software package. The spectra were registered with water suppression in 5 mm NMR (Aldrich, St. Louis, MO, USA) sample tubes. The chemical displacements used to identify the respective metabolites were previously confirmed by adding each analyzed metabolite to the studied supernatant, as well as by the study of a control solution with 4 μg/mL of each metabolite in buffer (phosphate, pH = 7.4). Each run was done at least in triplicate and the Student t test was used to analyze the significance of the changes. […]

cruzipain [3] = target: T1, cruzipain (Trypanosoma cruzi, UniProt P25779); assay: Inhibition of T. cruzi cruzipain (Z-Phe-Arg-AMC fluorogenic substrate); type: biochemical; settings: isolated enzyme
T1 construct: endogenous in cells; host or cells: T. cruzi epimastigotes, Tulahuen 2 strain

cruzipain [4] = target: T1, cruzipain; assay: as above; type: biochemical; settings: percentage of enzymatic inhibition at 100 μM; read-out: Cruzipain % Inhib100
Protocol: Initially, we tested the dithioles as inhibitors of the protease cruzipain from T. cruzi at a concentration of 100 μM.
Cruzipain was purified to homogeneity from epimastigotes of the Tulahuen 2 strain by ConA-Sepharose affinity chromatography, as previously described. Cruzipain (2.5 μM ε = 58,285 M^−1·cm^−1) was incubated in 50 mM acetate buffer pH 5.5 with 50 mM DTT and 100 μM inhibitor was added, shaking the solution for 15 min at 27 °C. The derivatives were added diluted in DMSO, and the controls contained the same solvent concentration. The concentration of DMSO never exceeded 1% in the reaction medium. E-64 was used as a positive control of inhibition. Then, the fluorogenic substrate Z-Phe-Arg-AMC (100 μM) was added and the fluorescence was measured during 10 min at intervals of 3 s (excitation at 350 nm and emission at 460 nm) using a Varioskan Flash Spectrophotometer. From the slope of the negative control, we calculated the total (100%) enzyme activity, while the slopes obtained in the presence of the compounds yielded the percentage of remaining enzyme activity. The percentage of enzyme inhibition was determined as […]. The experiments were done in duplicate.

[5] = IC50 × 2, 2 days, DMF internal standard

T1 sequence (P25779 123-467): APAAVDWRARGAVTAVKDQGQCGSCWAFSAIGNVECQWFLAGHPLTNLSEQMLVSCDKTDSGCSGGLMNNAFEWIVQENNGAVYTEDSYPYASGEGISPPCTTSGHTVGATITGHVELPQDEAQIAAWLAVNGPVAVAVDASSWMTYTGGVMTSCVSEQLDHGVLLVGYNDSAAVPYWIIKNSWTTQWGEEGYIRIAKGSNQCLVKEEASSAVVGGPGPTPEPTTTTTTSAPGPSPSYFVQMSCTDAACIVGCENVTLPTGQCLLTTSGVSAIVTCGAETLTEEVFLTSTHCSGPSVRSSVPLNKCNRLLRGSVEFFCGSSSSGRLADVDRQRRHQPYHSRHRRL

IC50 (cruzipain [3]): 15.5 ± 2.7 µM
inhibition at 100 µM (cruzipain [4]): 91.3 ± 2.8%
SMILES: CC(=O)COc1ccc(C2=C/C(=C(\SCC(C)=O)C(C)=O)SS2)cc1 [Derivative 2]
Changes in membrane sterols and intermediates (squalene, ergosterol) [1]: accumulate squalene and deplete ergosterol
Concentration of excreted Ace [2, 5]: 23.28 ± 0.86
Concentration of excreted Ala [2, 5]: 17.76 ± 0.61
Concentration of excreted Gly [2, 5]: 2.11 ± 0.11 ^c
Concentration of excreted Lac [2, 5]: 8.73 ± 0.37
Concentration of excreted Pyr [2, 5]: 8.00 ± 0.35
Concentration of excreted Succ [2, 5]: 5.83 ± 0.24
Change of excreted metabolites compared to the control ([2]; IC50 × 2, p < 0.05 Student's t-test): significantly decreased the levels of excreted Gly and Pyr
